# Values joined by “and” are separate entries in the source; they are usually repeats but may differ in a detail not shown here. Equal entries are not always repeated.
# Experiments:
# [1] = target: T1, hAChE (Homo sapiens, UniProt P22303); assay: In vitro hAChE inhibition assay; type: biochemical
# [2] = target: hBChE (Equus caballus, UniProt P81908); assay: In vitro hBChE inhibition assay; type: biochemical, human
# [3] = target: hBACE-1 (Homo sapiens, UniProt P56817); assay: biochemical; details: IC50 ± SEM hBACE-1, n = 3
# [4] = target: T1, hAChE; assay: hAChE enzyme kinetics; type: biochemical; details: substrate ATCI
# [5] = target: PAS-AChE (hAChE-PAS region) (Homo sapiens, UniProt P22303); assay: Propidium iodide displacement assay; type: binding
# [6] = tested on: differentiated SH-SY5Y cells; assay: Neurotoxicity estimation; type: cell-based; details: 10, 20, 40 and 80 μM, 24 h
# [7] = tested on: nondifferentiated SH-SY5Y cells; assay: Neuroprotective estimation; type: cell-based; details: Homo sapiens, 24 h, read-out: cell viability
# [8] = target: Aβ1–42 (Homo sapiens, UniProt P05067); assay: Self-induced Aβ aggregation inhibition thioflavin T assay; type: biochemical; details: compound 5, 10 and 20 μM; Aβ 10 μM
# [9] = target: Aβ1–42 with hAChE (Homo sapiens, UniProt P22303); assay: hAChE-induced Aβ aggregation inhibition thioflavin T assay; type: biochemical; details: compound 5, 10 and 20 μM; Aβ 10 μM
# [10] = tested on: female Wistar rats; assay: Acute oral toxicity study; type: in vivo
# [11] = tested on: scopolamine-induced rat model; assay: Scopolamine-induced Y-maze test; type: in vivo, Wistar rats; details: SD-6 2.5, 5, 10 mg/kg p.o.; donepezil 5 mg/kg p.o.; 7 days; vs scopolamine group
# [12] = tested on: AChE; assay: Ex vivo AChE estimation in hippocampal homogenate; design: species or system rat; details: scopolamine-treated rats; SD-6 2.5, 5, 10 mg/kg
# [13] = tested on: acetylcholine (ACh); assay: Ex vivo ACh estimation; type: in vivo, rat; details: scopolamine-treated rats; SD-6 2.5, 5, 10 mg/kg
# [14] = tested on: malonaldehyde (MDA); assay: Ex vivo MDA estimation; type: in vivo, rat; details: scopolamine-treated rats; SD-6 2.5, 5, 10 mg/kg; donepezil 5 mg/kg
# [15] = tested on: superoxide dismutase (SOD); assay: Ex vivo SOD assay; type: in vivo, rat; details: scopolamine-treated rats; SD-6 2.5, 5, 10 mg/kg; donepezil 5 mg/kg
# [16] = tested on: glutathione (GSH); assay: Ex vivo reduced glutathione; type: in vivo, rat; details: scopolamine-treated rats; SD-6 2.5, 5, 10 mg/kg; donepezil 5 mg/kg
# [17] = tested on: catalase; assay: Ex vivo catalase assay; type: in vivo, rat; details: scopolamine-treated rats; SD-6 2.5, 5, 10 mg/kg; donepezil 5 mg/kg
# [18] = tested on: hippocampal brain (dentate gyrus) neurons; assay: Brain tissue histopathology; type: in vivo, rat; details: Aβ1–42 rats, SD-6 10 mg/kg, donepezil 5 mg/kg
# [19] = n = 3, mean ± SEM
# [20] = in vitro; details: PAMPA, pH 7.4
# [21] = tested on: ICV Aβ1–42-induced rat model; assay: Aβ-induced Morris water maze test; details: SD-6 10 mg/kg, donepezil 5 mg/kg, orally 9 days; vs Aβ group
# Sequence of PAS-AChE (hAChE-PAS region) (P22303 32-617 isoform P22303-2 limits assumed): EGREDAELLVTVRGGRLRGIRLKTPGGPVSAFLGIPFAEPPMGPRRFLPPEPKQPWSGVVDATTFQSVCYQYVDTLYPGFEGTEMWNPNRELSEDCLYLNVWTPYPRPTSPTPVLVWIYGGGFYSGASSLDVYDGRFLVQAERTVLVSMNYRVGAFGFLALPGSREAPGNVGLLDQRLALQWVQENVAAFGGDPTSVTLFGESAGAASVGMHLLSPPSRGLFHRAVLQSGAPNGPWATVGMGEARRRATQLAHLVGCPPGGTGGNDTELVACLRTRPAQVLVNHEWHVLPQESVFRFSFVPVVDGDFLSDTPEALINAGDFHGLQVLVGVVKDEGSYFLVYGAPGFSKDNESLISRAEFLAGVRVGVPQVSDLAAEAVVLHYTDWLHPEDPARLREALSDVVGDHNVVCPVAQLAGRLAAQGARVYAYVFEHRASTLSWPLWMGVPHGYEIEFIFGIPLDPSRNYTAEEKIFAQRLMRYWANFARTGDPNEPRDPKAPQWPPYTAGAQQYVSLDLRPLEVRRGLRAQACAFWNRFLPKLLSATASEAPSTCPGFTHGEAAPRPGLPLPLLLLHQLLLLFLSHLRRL
# T1 sequence (P22303 32-617 isoform P22303-2 limits assumed): as above
# Sequence of Aβ1–42 (P05067 672-713): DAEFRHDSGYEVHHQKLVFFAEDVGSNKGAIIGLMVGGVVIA
# Sequence of hBChE (P81908 whole entry): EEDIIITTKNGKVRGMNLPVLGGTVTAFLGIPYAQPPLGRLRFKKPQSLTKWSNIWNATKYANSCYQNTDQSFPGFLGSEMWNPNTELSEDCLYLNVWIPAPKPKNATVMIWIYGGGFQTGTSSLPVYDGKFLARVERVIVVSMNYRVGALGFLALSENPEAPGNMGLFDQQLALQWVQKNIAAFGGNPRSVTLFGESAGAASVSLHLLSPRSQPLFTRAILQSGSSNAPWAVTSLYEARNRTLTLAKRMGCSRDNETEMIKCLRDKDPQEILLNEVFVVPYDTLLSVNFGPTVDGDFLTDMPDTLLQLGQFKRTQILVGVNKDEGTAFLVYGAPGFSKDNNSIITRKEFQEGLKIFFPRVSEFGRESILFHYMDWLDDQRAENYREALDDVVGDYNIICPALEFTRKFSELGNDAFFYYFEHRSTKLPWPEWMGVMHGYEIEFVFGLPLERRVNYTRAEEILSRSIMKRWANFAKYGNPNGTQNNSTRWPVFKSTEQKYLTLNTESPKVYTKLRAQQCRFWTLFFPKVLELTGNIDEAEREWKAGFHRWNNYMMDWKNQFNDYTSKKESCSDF
# Sequence of Aβ1–42 with hAChE (P22303 32-588 isoform P22303-2): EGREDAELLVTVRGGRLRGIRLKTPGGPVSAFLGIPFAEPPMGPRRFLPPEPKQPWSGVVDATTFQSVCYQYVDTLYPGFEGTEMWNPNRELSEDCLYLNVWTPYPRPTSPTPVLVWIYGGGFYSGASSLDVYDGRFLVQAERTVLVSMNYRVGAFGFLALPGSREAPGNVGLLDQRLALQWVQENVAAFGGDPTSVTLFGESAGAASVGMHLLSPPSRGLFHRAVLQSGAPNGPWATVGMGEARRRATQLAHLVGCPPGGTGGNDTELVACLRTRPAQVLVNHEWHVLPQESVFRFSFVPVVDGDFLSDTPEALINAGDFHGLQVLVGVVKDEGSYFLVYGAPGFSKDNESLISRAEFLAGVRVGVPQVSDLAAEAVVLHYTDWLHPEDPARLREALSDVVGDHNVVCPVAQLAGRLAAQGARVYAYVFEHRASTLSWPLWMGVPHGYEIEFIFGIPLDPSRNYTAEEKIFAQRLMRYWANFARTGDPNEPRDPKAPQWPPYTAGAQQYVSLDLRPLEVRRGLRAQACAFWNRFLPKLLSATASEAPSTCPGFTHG
# Sequence of hBACE-1 (P56817 46-501): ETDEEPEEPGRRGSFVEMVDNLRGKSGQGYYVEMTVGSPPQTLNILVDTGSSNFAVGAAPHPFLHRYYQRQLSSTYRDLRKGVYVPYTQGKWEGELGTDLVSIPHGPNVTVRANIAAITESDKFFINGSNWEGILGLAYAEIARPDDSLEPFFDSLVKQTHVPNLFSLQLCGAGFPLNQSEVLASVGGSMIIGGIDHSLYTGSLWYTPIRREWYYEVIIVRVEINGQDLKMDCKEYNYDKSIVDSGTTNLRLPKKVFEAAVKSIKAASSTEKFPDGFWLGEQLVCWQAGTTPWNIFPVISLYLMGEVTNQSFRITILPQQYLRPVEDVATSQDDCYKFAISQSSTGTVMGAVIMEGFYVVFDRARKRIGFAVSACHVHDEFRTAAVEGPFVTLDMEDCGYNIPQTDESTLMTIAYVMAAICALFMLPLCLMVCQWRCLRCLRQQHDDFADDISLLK
compound,measurement,setting,value
"S=c1oc(-c2ccccc2)nn1CN1CCN(Cc2ccccc2)CC1 [SD-6, 3-((4-Benzylpiperazin-1-yl)methyl)-5-phenyl-1,3,4-oxadiazole-2(3H)-thione]",IC50,"[1]; IC50 ± SEM hAChE, n = 3",907 ± 11 nM
same,IC50,"[1]; hAChE inhibitory activity (good/moderate/poor), class in words",< 1000 nM
same,IC50,[2],1580 ± 37 nM
same,IC50,[3],753 ± 18 nM
same,type of inhibition (Lineweaver–Burk plot),[4],mixed-type noncompetitive
same,PAS-AChE propidium iodide displacement (%),[5]; [I] = 10 μM,27.3% and 27.316 ± 1.208%
same,PAS-AChE propidium iodide displacement (%),[5]; [I] = 50 μM,56.2% and 56.238 ± 1.338%
same,"neurotoxicity (MTT, cell population and morphology)",[6],non-neurotoxic
same,viability at 5 µM,[7],61.4%
same,viability at 10 µM,[7],74%
same,viability at 20 µM,[7],83.6%
same,"% Aβ aggregation inhibition, self-induced",[8],22–69%
same,"% Aβ aggregation inhibition, hAChE-induced",[9],41–81%
same,"weight loss (initial, in some animals)","[10]; 100–500 mg/kg, p.o., regained in 10–12 days",12–25%
same,"organ histopathology (kidney, liver, lungs, heart; H&E)",[10]; after 14 days,normal tissue appearance
same,hepatic and renal function tests,[10]; blood samples after acute toxicity study,within the range
same,% spontaneous alterations,[11],significant increase in % spontaneous alterations in a dose-dependent manner
same,AChE level (hippocampal),[12],dose-dependent decrease
same,ACh brain level,[13],dose-dependent increase
same,MDA level,[14],declines in MDA
same,SOD level,[15],elevation of SOD levels
same,GSH level,[16],elevation of both the biomarkers
same,catalase activity,[17],elevation of both the biomarkers
same,neuronal morphology (dentate gyrus),[18],less disordered neuronal arrangement and vacuolar fibrosis
same,neuronal density (dentate gyrus),[18]; vs Aβ1–42-treated group,higher
same,Pe(exp) PAMPA–BBB,[19],5.643 10^–6 cm/s
same,Papp,[20],5.643 ± 0.021 ×10⁻⁶ cm/s
same,escape latency time (ELT),[21],significant change as compared to the Aβ group
same,time spent in the platform zone,[21],significantly (^bp < 0.001) higher
same,total number of entries to the platform zone,[21],significantly (^bp < 0.001) different from the Aβ-treated animal group

# — article PMC10018501 (ACS Omega, 2023)
